In patent publication US4224442A, “7-Ureido acetamido substituted cephalosporin antibiotics” (Eli Lilly and Company, priority 1975, dated 1980):
Converted amounts (≈) assume the structure as drawn.

Legend:
[1] = test system: Escherichia coli; assay: Gradient Plate in vitro method, MIC; format: cell-based; settings: read-out: Minimum Inhibitory Concentration
From the text: (§1) The values in the table are the minimum inhibitory concentrations (MIC) for the test compounds against the indicated microorganisms. The MIC values were obtained in the Gradient Plate in vitro method for determining antibiotic activity.

[2] = test system: Serratia marcescens; assay: Gradient Plate in vitro method, MIC; format: cell-based; settings: read-out: Minimum Inhibitory Concentration
From the text: as §1

[3] = test system: X400; assay: Gradient Plate in vitro method, MIC; format: cell-based; settings: X400, methicillin resistant Staphylococcus, read-out: Minimum Inhibitory Concentration
From the text: as §1, with “The antibiotic activity of the cephalosporin compounds of the formula I is illustrated by the data presented in Table I for representative compounds. The values” for “The values”
(§2) Minimum Inhibitory Concentration (mcg./ml.)
(§3) ^1 Test organisms V41, V32 and V84 are penicillin resistant
(§4) Staphyloccus, X400 is a methicillin resistant Staphylococcus.

[4] = test system: V32; assay: Gradient Plate in vitro method, MIC; format: cell-based, penicillin resistant Staphyloccus; settings: V32, penicillin resistant Staphylococcus, read-out: Minimum Inhibitory Concentration
From the text: as §1, with “The antibiotic activity of the cephalosporin compounds of the formula I is illustrated by the data presented in Table I for representative compounds. The values” for “The values”
as §2, §3, §4

[5] = test system: V84; assay: Gradient Plate in vitro method, MIC; format: cell-based, penicillin resistant Staphyloccus; settings: V84, penicillin resistant Staphylococcus, read-out: Minimum Inhibitory Concentration
From the text: as §1, with “The antibiotic activity of the cephalosporin compounds of the formula I is illustrated by the data presented in Table I for representative compounds. The values” for “The values”
as §2, §3, §4

[6] = test system: V41; assay: Gradient Plate in vitro method, MIC; format: cell-based, penicillin resistant Staphyloccus; settings: V41, penicillin resistant Staphylococcus, read-out: Minimum Inhibitory Concentration
From the text: as §1, with “The antibiotic activity of the cephalosporin compounds of the formula I is illustrated by the data presented in Table I for representative compounds. The values” for “The values”
as §2, §3, §4

[7] = test system: Pseudomonas aeruginosa; assay: Gradient Plate in vitro method, MIC; format: cell-based; settings: read-out: Minimum Inhibitory Concentration
From the text: as §1, with “The antibiotic activity of the cephalosporin compounds of the formula I is illustrated by the data presented in Table I for representative compounds. The values” for “The values”
as §2

[8] = test system: Salmonella heidelberg; assay: Gradient Plate in vitro method, MIC; format: cell-based; settings: Salmonella enterica, read-out: Minimum Inhibitory Concentration
From the text: as §1, with “The antibiotic activity of the cephalosporin compounds of the formula I is illustrated by the data presented in Table I for representative compounds. The values” for “The values”
as §2

[9] = test system: Shigella sp.; assay: Gradient Plate in vitro method, MIC; format: cell-based; settings: read-out: Minimum Inhibitory Concentration
From the text: as §1, with “The antibiotic activity of the cephalosporin compounds of the formula I is illustrated by the data presented in Table I for representative compounds. The values” for “The values”
as §2

[10] = test system: Aerobacter aerogenes; assay: Gradient Plate in vitro method, MIC; format: cell-based; settings: Klebsiella aerogenes, read-out: Minimum Inhibitory Concentration
From the text: as §1, with “The antibiotic activity of the cephalosporin compounds of the formula I is illustrated by the data presented in Table I for representative compounds. The values” for “The values”
as §2

[11] = test system: Klebsiella pneumoniae; assay: Gradient Plate in vitro method, MIC; format: cell-based; settings: read-out: Minimum Inhibitory Concentration
From the text: as §1, with “The antibiotic activity of the cephalosporin compounds of the formula I is illustrated by the data presented in Table I for representative compounds. The values” for “The values”
as §2

[12] = test system: Staphylococcus aureus; assay: standard gear agar dilution method, MIC; format: cell-based
From the text: In the standard gear agar dilution method, the MIC values for the above test compounds A through E against Staphylococcus aureus were as follows: A, 2; B, 1; C, 0.5; D, 2; and E, 0.5 mcg./m1.

[13] = test system: Escherichia coli; assay: in vivo effective dose in experimental infections in mice; settings: ip, E. coli infection in mice
From the text: (§5) The in vivo effective dose […] in mg./kg. for representative antibiotics of the formula I has been determined in experimental infections in mice. Table II lists the ED50 dose vs. Streptococcus pyogenes and Escherichia coli infections. In the table, the antibiotics are identified with the R", R', and R1 -R3 terms of Formula I. |Test Compound ED50 (mg/kg × 2) i.p.

[14] = test system: Streptococcus pyogenes; assay: as above; settings: ip, S. pyogenes infection in mice
From the text: as §5

| Structure (SMILES) | MIC [1] | MIC [2] | MIC [3] | MIC [4] | MIC [5] | MIC [6] | MIC [7] | MIC [8] | MIC [9] | MIC [10] | MIC [11] | MIC [12] | ED50 [13] | ED50 [14] |
| --- | --- | --- | --- | --- | --- | --- | --- | --- | --- | --- | --- | --- | --- | --- |
| CNC(=O)N(C)C(=O)NC(C(=O)NC1C(=O)N2C(C(=O)O)=C(CSc3nnnn3C)CSC12)c1ccccc1 (stereo not drawn) [Test Compound F, 7-[α-(3-methylcarbamoyl-3-methyl-1-ureido)-α-phenylacetamido]-3-(1-methyl-1H-tetrazole-5-ylthiomethyl)-3-cephem-4-carboxylic acid] | 4 µg/mL (≈ 6.95 µM) | 22 µg/mL (≈ 38.2 µM) | > 20 µg/mL | 5 µg/mL (≈ 8.69 µM) | 4 µg/mL (≈ 6.95 µM) | 5 µg/mL (≈ 8.69 µM) | 22 µg/mL (≈ 38.2 µM) | 3 µg/mL (≈ 5.21 µM) | 3 µg/mL (≈ 5.21 µM) | 3 µg/mL (≈ 5.21 µM) | 1 µg/mL (≈ 1.74 µM) | – | – | – |
| CNC(=O)NC(=O)NC(C(=O)NC1C(=O)N2C(C(=O)O)=C(CSc3nnc(C)s3)CSC12)c1ccc(O)cc1 (stereo not drawn) [Test Compound L, Sodium 7-[α-(3-methylcarbamoyl-1-ureido)-α-(4-hydroxyphenyl)acetamido]-3-(5-methyl-1,3,4-thiadiazole-2-ylthiomethyl)3-cephem-4-carboxylate] | 7.5 µg/mL | > 200 µg/mL | > 20 µg/mL | 7.5 µg/mL | 0.6 µg/mL | 6.5 µg/mL | 19.5 µg/mL | 6.5 µg/mL | 5.5 µg/mL | 15.5 µg/mL | 16 µg/mL | – | – | – |
| Cn1nnnc1SCC1=C(C(=O)O)N2C(=O)C(NC(=O)C(NC(=O)N3CCNC3=O)c3ccccc3)[C@H]2SC1 (stereo partly drawn) [Test Compound D, 7-[α-(imidazolidine-2-one-1-ylcarbonylamino)-α-phenylacetamido]-3-(1-methyl-1H-tetrazole-5-ylthiomethyl)-3-cephem-4-carboxylic acid] | 12 µg/mL (≈ 20.9 µM) | 70 µg/mL (≈ 122 µM) | > 20 µg/mL | 7 µg/mL (≈ 12.2 µM) | 0.9 µg/mL (≈ 1.57 µM) | 6 µg/mL (≈ 10.5 µM) | 90 µg/mL (≈ 157 µM) | 6 µg/mL (≈ 10.5 µM) | 7 µg/mL (≈ 12.2 µM) | 12 µg/mL (≈ 20.9 µM) | 7 µg/mL (≈ 12.2 µM) | 2 µg/mL (≈ 3.49 µM) | – | – |
| CNC(=O)NC(=O)NC(C(=O)NC1C(=O)N2C(C(=O)O)=C(CSc3nnnn3C)CSC12)c1cccs1 (stereo not drawn) [Test Compound I, 7-[α-(3-methylcarbamoyl-1-ureido)-α-(2-thienyl)-acetamido]-3-(1-methyl-1H-tetrazole-5-ylthiomethyl)-3-cephem-4-carboxylic acid] | 5.5 µg/mL (≈ 9.69 µM) | 35 µg/mL (≈ 61.7 µM) | 13 µg/mL (≈ 22.9 µM) | 0.7 µg/mL (≈ 1.23 µM) | 0.6 µg/mL (≈ 1.06 µM) | 0.6 µg/mL (≈ 1.06 µM) | 16 µg/mL (≈ 28.2 µM) | 4.5 µg/mL (≈ 7.93 µM) | 3 µg/mL (≈ 5.29 µM) | 4.3 µg/mL (≈ 7.58 µM) | 6.8 µg/mL (≈ 12 µM) | – | < 72 mg/kg | < 7.2 mg/kg |
| CNC(=O)NC(=O)NC(C(=O)NC1C(=O)N2C(C(=O)O)=C(CSc3nnnn3C)CSC12)c1ccccc1 (stereo not drawn) [Test Compound J, 7-[α-(3-methylcarbamoyl-1-ureido)-α-phenylacetamido)-3-(1-methyl-1H-tetrazole-5-ylthiomethyl)-3-cephem-4-carboxylic acid] | 7.5 µg/mL (≈ 13.4 µM) | 130 µg/mL (≈ 231 µM) | > 20 µg/mL | 3 µg/mL (≈ 5.34 µM) | 5 µg/mL (≈ 8.9 µM) | 2 µg/mL (≈ 3.56 µM) | 22.3 µg/mL (≈ 39.7 µM) | 4.3 µg/mL (≈ 7.66 µM) | 4 µg/mL (≈ 7.12 µM) | 4.3 µg/mL (≈ 7.66 µM) | 10 µg/mL (≈ 17.8 µM) | – | 72 mg/kg | 0.7 mg/kg |
| Cn1nnnc1SCC1=C(C(=O)O)N2C(=O)C(NC(=O)C(NC(=O)NC(=O)Nc3ccccc3)c3ccccc3)C2SC1 (stereo not drawn) [Test Compound M, 7-[α-(3-phenylcarbamoyl-1-ureido)-α-phenylacetamido]-3-(1-methyl-1H-tetrazole-5-ylthiomethyl)-3-cephem-4-carboxylic acid] | 10 µg/mL (≈ 16 µM) | 24 µg/mL (≈ 38.5 µM) | 10 µg/mL (≈ 16 µM) | 0.5 µg/mL (≈ 0.802 µM) | 0.5 µg/mL (≈ 0.802 µM) | 0.6 µg/mL (≈ 0.962 µM) | 19.5 µg/mL (≈ 31.3 µM) | 7.8 µg/mL (≈ 12.5 µM) | 4 µg/mL (≈ 6.41 µM) | 15.5 µg/mL (≈ 24.9 µM) | 0.6 µg/mL (≈ 0.962 µM) | – | – | – |
